The subject of this series is CCRIS mutagenicity, Ames/micronucleus/aberration tests. The series is described as follows: CCRIS mutagenicity studies.

Calls of active or inactive are those of the source. How the calls were made is not given here.

Consider `O=Cc1ccc(Cl)c(Cl)c1`, for which the mutagenic call is “inactive; negative” (Test System: AMES SALMONELLA TYPHIMURIUM, Strain/Indicator: TA97, Metabolic Activation: HAMSTER, LIVER, S-9, AROCLOR 1254 (10%), Method: PREINCUBATION); “inactive; negative” (Test System: AMES SALMONELLA TYPHIMURIUM, Strain/Indicator: TA97, Metabolic Activation: HAMSTER, LIVER, S-9, AROCLOR 1254 (30%), Method: PREINCUBATION); “inactive; negative” (Test System: AMES SALMONELLA TYPHIMURIUM, Strain/Indicator: TA97, Metabolic Activation: NONE, Method: PREINCUBATION); “inactive; negative” (Test System: AMES SALMONELLA TYPHIMURIUM, Strain/Indicator: TA97, Metabolic Activation: RAT, LIVER, S-9, AROCLOR 1254 (10%), Method: PREINCUBATION); “inactive; negative” (Test System: AMES SALMONELLA TYPHIMURIUM, Strain/Indicator: TA97, Metabolic Activation: RAT, LIVER, S-9, AROCLOR 1254 (30%), Method: PREINCUBATION); “inactive; negative” (Test System: AMES SALMONELLA TYPHIMURIUM, Strain/Indicator: TA98, Metabolic Activation: HAMSTER, LIVER, S-9, AROCLOR 1254 (10%), Method: PREINCUBATION). Besides, the mutagenic call runs as follows: (Test System: AMES SALMONELLA TYPHIMURIUM, Strain/Indicator: TA98, Metabolic Activation: HAMSTER, LIVER, S-9, AROCLOR 1254 (30%), Method: PREINCUBATION) “inactive; negative”; (Test System: AMES SALMONELLA TYPHIMURIUM, Strain/Indicator: TA98, Metabolic Activation: NONE, Method: PREINCUBATION) “inactive; negative”; (Test System: AMES SALMONELLA TYPHIMURIUM, Strain/Indicator: TA98, Metabolic Activation: RAT, LIVER, S-9, AROCLOR 1254 (10%), Method: PREINCUBATION) “inactive; negative”; (Test System: AMES SALMONELLA TYPHIMURIUM, Strain/Indicator: TA98, Metabolic Activation: RAT, LIVER, S-9, AROCLOR 1254 (30%), Method: PREINCUBATION) “inactive; negative”; (Test System: AMES SALMONELLA TYPHIMURIUM, Strain/Indicator: TA100, Metabolic Activation: HAMSTER, LIVER, S-9, AROCLOR 1254 (10%), Method: PREINCUBATION) “inactive; negative”; (Test System: AMES SALMONELLA TYPHIMURIUM, Strain/Indicator: TA100, Metabolic Activation: HAMSTER, LIVER, S-9, AROCLOR 1254 (30%), Method: PREINCUBATION) “inactive; negative”. Besides, the mutagenic call (Test System: AMES SALMONELLA TYPHIMURIUM, Strain/Indicator: TA100, Metabolic Activation: NONE, Method: PREINCUBATION) was “inactive; negative”; the mutagenic call (Test System: AMES SALMONELLA TYPHIMURIUM, Strain/Indicator: TA100, Metabolic Activation: RAT, LIVER, S-9, AROCLOR 1254 (10%), Method: PREINCUBATION) was “inactive; negative”; the mutagenic call (Test System: AMES SALMONELLA TYPHIMURIUM, Strain/Indicator: TA100, Metabolic Activation: RAT, LIVER, S-9, AROCLOR 1254 (30%), Method: PREINCUBATION) was “inactive; negative”; the mutagenic call (Test System: AMES SALMONELLA TYPHIMURIUM, Strain/Indicator: TA104, Metabolic Activation: HAMSTER, LIVER, S-9, AROCLOR 1254 (10%), Method: PREINCUBATION) is “inactive; negative”; the mutagenic call (Test System: AMES SALMONELLA TYPHIMURIUM, Strain/Indicator: TA104, Metabolic Activation: HAMSTER, LIVER, S-9, AROCLOR 1254 (30%), Method: PREINCUBATION) was “inactive; negative”; the mutagenic call (Test System: AMES SALMONELLA TYPHIMURIUM, Strain/Indicator: TA104, Metabolic Activation: NONE, Method: PREINCUBATION) is “inactive; negative”. The mutagenic call was “inactive; negative” (Test System: AMES SALMONELLA TYPHIMURIUM, Strain/Indicator: TA104, Metabolic Activation: RAT, LIVER, S-9, AROCLOR 1254 (10%), Method: PREINCUBATION); “inactive; negative” (Test System: AMES SALMONELLA TYPHIMURIUM, Strain/Indicator: TA104, Metabolic Activation: RAT, LIVER, S-9, AROCLOR 1254 (30%), Method: PREINCUBATION); “inactive; negative” (Test System: AMES SALMONELLA TYPHIMURIUM, Strain/Indicator: TA1535, Metabolic Activation: HAMSTER, LIVER, S-9, AROCLOR 1254 (10%), Method: PREINCUBATION); “inactive; negative” (Test System: AMES SALMONELLA TYPHIMURIUM, Strain/Indicator: TA1535, Metabolic Activation: HAMSTER, LIVER, S-9, AROCLOR 1254 (30%), Method: PREINCUBATION); “inactive; negative” (Test System: AMES SALMONELLA TYPHIMURIUM, Strain/Indicator: TA1535, Metabolic Activation: NONE, Method: PREINCUBATION); “inactive; negative” (Test System: AMES SALMONELLA TYPHIMURIUM, Strain/Indicator: TA1535, Metabolic Activation: RAT, LIVER, S-9, AROCLOR 1254 (10%), Method: PREINCUBATION). Under “Test System: AMES SALMONELLA TYPHIMURIUM, Strain/Indicator: TA1535, Metabolic Activation: RAT, LIVER, S-9, AROCLOR 1254 (30%), Method: PREINCUBATION”, the mutagenic call was “inactive; negative”.
Regarding `C=C(C)C(=O)OCCOC(=O)C(=C)C`, the mutagenic call by setting is: (Test System: AMES SALMONELLA TYPHIMURIUM, Strain/Indicator: TA98, Metabolic Activation: HAMSTER, LIVER, S-9, AROCLOR 1254, Method: STANDARD PLATE) “inactive; negative”; (Test System: AMES SALMONELLA TYPHIMURIUM, Strain/Indicator: TA98, Metabolic Activation: NONE, Method: STANDARD PLATE) “inactive; negative”; (Test System: AMES SALMONELLA TYPHIMURIUM, Strain/Indicator: TA98, Metabolic Activation: RAT, LIVER, AROCLOR 1254, Method: STANDARD PLATE) “inactive; negative”; (Test System: AMES SALMONELLA TYPHIMURIUM, Strain/Indicator: TA98, Metabolic Activation: RAT, LIVER, S-9, AROCLOR 1254, Method: STANDARD PLATE) “inactive; negative”; (Test System: AMES SALMONELLA TYPHIMURIUM, Strain/Indicator: TA98, Metabolic Activation: RAT, LIVER, S-9, SODIUM PHENOBARBITAL, Method: STANDARD PLATE) “inactive; negative”; (Test System: AMES SALMONELLA TYPHIMURIUM, Strain/Indicator: TA100, Metabolic Activation: HAMSTER, LIVER, S-9, AROCLOR 1254, Method: STANDARD PLATE) “inactive; negative”. The mutagenic call is “inactive; negative” (Test System: AMES SALMONELLA TYPHIMURIUM, Strain/Indicator: TA100, Metabolic Activation: NONE, Method: STANDARD PLATE); “inactive; negative” (Test System: AMES SALMONELLA TYPHIMURIUM, Strain/Indicator: TA100, Metabolic Activation: RAT, LIVER, S-9, AROCLOR 1254, Method: STANDARD PLATE); “inactive; negative” (Test System: AMES SALMONELLA TYPHIMURIUM, Strain/Indicator: TA100, Metabolic Activation: RAT, LIVER, S-9, SODIUM PHENOBARBITAL, Method: STANDARD PLATE); “inactive; negative” (Test System: AMES SALMONELLA TYPHIMURIUM, Strain/Indicator: TA1535, Metabolic Activation: HAMSTER, LIVER, S-9, AROCLOR 1254, Method: STANDARD PLATE); “inactive; negative” (Test System: AMES SALMONELLA TYPHIMURIUM, Strain/Indicator: TA1535, Metabolic Activation: NONE, Method: STANDARD PLATE); “inactive; negative” (Test System: AMES SALMONELLA TYPHIMURIUM, Strain/Indicator: TA1535, Metabolic Activation: RAT, LIVER, S-9, AROCLOR 1254, Method: STANDARD PLATE). Further, the mutagenic call reads like this: (Test System: AMES SALMONELLA TYPHIMURIUM, Strain/Indicator: TA1535, Metabolic Activation: RAT, LIVER, S-9, SODIUM PHENOBARBITAL, Method: STANDARD PLATE) “inactive; negative”; (Test System: AMES SALMONELLA TYPHIMURIUM, Strain/Indicator: TA1537, Metabolic Activation: HAMSTER, LIVER, S-9, AROCLOR 1254, Method: STANDARD PLATE) “inactive; negative”; (Test System: AMES SALMONELLA TYPHIMURIUM, Strain/Indicator: TA1537, Metabolic Activation: NONE, Method: STANDARD PLATE) “inactive; negative”; (Test System: AMES SALMONELLA TYPHIMURIUM, Strain/Indicator: TA1537, Metabolic Activation: RAT, LIVER, S-9, AROCLOR 1254, Method: STANDARD PLATE) “inactive; negative”; (Test System: AMES SALMONELLA TYPHIMURIUM, Strain/Indicator: TA1537, Metabolic Activation: RAT, LIVER, S-9, SODIUM PHENOBARBITAL, Method: STANDARD PLATE) “inactive; negative”; (Test System: AMES SALMONELLA TYPHIMURIUM, Strain/Indicator: TA1538, Metabolic Activation: NONE, Method: STANDARD PLATE) “inactive; negative”. For the same compound, the mutagenic call reads like this: (Test System: AMES SALMONELLA TYPHIMURIUM, Strain/Indicator: TA1538, Metabolic Activation: RAT, LIVER, S-9, AROCLOR 1254, Method: STANDARD PLATE) “inactive; negative”; (Test System: AMES SALMONELLA TYPHIMURIUM, Strain/Indicator: TA1538, Metabolic Activation: RAT, LIVER, S-9, SODIUM PHENOBARBITAL, Method: STANDARD PLATE) “inactive; negative”; (Test System: Mouse lymphoma, Strain/Indicator: L5178Y (tk+/tk-), Metabolic Activation: Rat, Liver, S-9, Aroclor 1254, Method: Suspension/plate) “active; positive”.
